Test results: patent publication US10322111B2, “Chemokine receptor binding heterocyclic compounds with enhanced efficacy” (Genzyme Corporation, priority 2001, dated 2019)
Like-named read-outs stand apart in the source and are kept apart here.

System: CFU-GM, BFU-E and CFU-GEMM progenitor cells
Details: for Cycling Status of Progenitors, BFU-E / Cycling Status of Progenitors, CFU-GEMM / Cycling Status of Progenitors, CFU-GM / Cycling Status of Progenitors, CFU-GM, AGAR Culture: 80 μg/kg s.c.

## c1cc(CN2CCCNCCNCCCNCC2)ccc1CN1CCCNCCNCCCNCC1 [AMD3100, 1,1′-[1,4-phenylene-bis(methylene)]-bis-1,4,8,11-tetraazacyclotetradecane]
P1, T = 1 h after injection
  Cycling Status of Progenitors, BFU-E: 0%
  Cycling Status of Progenitors, CFU-GEMM: 0%
  Cycling Status of Progenitors, CFU-GM: 1%
  Cycling Status of Progenitors, CFU-GM, AGAR Culture: 0%
P1, T = 3 h after injection
  Cycling Status of Progenitors, BFU-E: 13%
  Cycling Status of Progenitors, CFU-GEMM: 7%
  Cycling Status of Progenitors, CFU-GM: 1%
  Cycling Status of Progenitors, CFU-GM, AGAR Culture: 0%
P1, T = 6 h after injection
  Cycling Status of Progenitors, BFU-E: 0%
  Cycling Status of Progenitors, CFU-GEMM: 0%
  Cycling Status of Progenitors, CFU-GM: 0%
  Cycling Status of Progenitors, CFU-GM, AGAR Culture: 0%
P1, T = 9 h after injection
  Cycling Status of Progenitors, BFU-E: 11%
  Cycling Status of Progenitors, CFU-GEMM: 0%
  Cycling Status of Progenitors, CFU-GM: 2%
P1, T = 24 h after injection
  Cycling Status of Progenitors, BFU-E: 0%
  Cycling Status of Progenitors, CFU-GEMM: 0%
  Cycling Status of Progenitors, CFU-GM: 0%
P2, T = 1 h after injection
  Cycling Status of Progenitors, BFU-E: 3%
  Cycling Status of Progenitors, CFU-GEMM: 6%
  Cycling Status of Progenitors, CFU-GM: 0%
  Cycling Status of Progenitors, CFU-GM, AGAR Culture: 0%
P2, T = 3 h after injection
  Cycling Status of Progenitors, BFU-E: 0%
  Cycling Status of Progenitors, CFU-GEMM: 0%
  Cycling Status of Progenitors, CFU-GM: 2%
  Cycling Status of Progenitors, CFU-GM, AGAR Culture: 1%
P2, T = 6 h after injection
  Cycling Status of Progenitors, BFU-E: 0%
  Cycling Status of Progenitors, CFU-GEMM: 0%
  Cycling Status of Progenitors, CFU-GM: 0%
  Cycling Status of Progenitors, CFU-GM, AGAR Culture: 3%
P2, T = 9 h after injection
  Cycling Status of Progenitors, BFU-E: 0%
  Cycling Status of Progenitors, CFU-GEMM: 4%
  Cycling Status of Progenitors, CFU-GM: 0%
  Cycling Status of Progenitors, CFU-GM, AGAR Culture: 0%
P2, T = 24 h after injection
  Cycling Status of Progenitors, BFU-E: 2%
  Cycling Status of Progenitors, CFU-GEMM: 0%
  Cycling Status of Progenitors, CFU-GM: 3%
  Cycling Status of Progenitors, CFU-GM, AGAR Culture: 0%
P3, T = 1 h after injection
  Cycling Status of Progenitors, BFU-E: 0%
  Cycling Status of Progenitors, CFU-GEMM: 0%
  Cycling Status of Progenitors, CFU-GM: 0%
  Cycling Status of Progenitors, CFU-GM, AGAR Culture: 0%
P3, T = 3 h after injection
  Cycling Status of Progenitors, BFU-E: 0%
  Cycling Status of Progenitors, CFU-GEMM: 0%
  Cycling Status of Progenitors, CFU-GM: 1%
  Cycling Status of Progenitors, CFU-GM, AGAR Culture: 0%
P3, T = 6 h after injection
  Cycling Status of Progenitors, BFU-E: 0%
  Cycling Status of Progenitors, CFU-GEMM: 0%
  Cycling Status of Progenitors, CFU-GM: 0%
  Cycling Status of Progenitors, CFU-GM, AGAR Culture: 3%
P3, T = 9 h after injection
  Cycling Status of Progenitors, BFU-E: 0%
  Cycling Status of Progenitors, CFU-GEMM: 0%
  Cycling Status of Progenitors, CFU-GM: 0%
  Cycling Status of Progenitors, CFU-GM, AGAR Culture: 0%
P3, T = 24 h after injection
  Cycling Status of Progenitors, BFU-E: 0%
  Cycling Status of Progenitors, CFU-GEMM: 0%
  Cycling Status of Progenitors, CFU-GM: 0%
  Cycling Status of Progenitors, CFU-GM, AGAR Culture: 0%
P4, T = 1 h after injection
  Cycling Status of Progenitors, BFU-E: 0%
  Cycling Status of Progenitors, CFU-GEMM: 0%
  Cycling Status of Progenitors, CFU-GM: 0%
  Cycling Status of Progenitors, CFU-GM, AGAR Culture: 0%
P4, T = 3 h after injection
  Cycling Status of Progenitors, BFU-E: 9%
  Cycling Status of Progenitors, CFU-GEMM: 0%
  Cycling Status of Progenitors, CFU-GM: 5%
  Cycling Status of Progenitors, CFU-GM, AGAR Culture: 0%
P4, T = 6 h after injection
  Cycling Status of Progenitors, BFU-E: 0%
  Cycling Status of Progenitors, CFU-GEMM: 8%
  Cycling Status of Progenitors, CFU-GM: 0%
  Cycling Status of Progenitors, CFU-GM, AGAR Culture: 0%
P4, T = 9 h after injection
  Cycling Status of Progenitors, BFU-E: 0%
  Cycling Status of Progenitors, CFU-GEMM: 0%
  Cycling Status of Progenitors, CFU-GM: 0%
  Cycling Status of Progenitors, CFU-GM, AGAR Culture: 0%
P4, T = 24 h after injection
  Cycling Status of Progenitors, BFU-E: 3%
  Cycling Status of Progenitors, CFU-GEMM: 0%
  Cycling Status of Progenitors, CFU-GM: 5%
  Cycling Status of Progenitors, CFU-GM, AGAR Culture: 0%
P5, T = 1 h after injection
  Cycling Status of Progenitors, BFU-E: 0%
  Cycling Status of Progenitors, CFU-GEMM: 0%
  Cycling Status of Progenitors, CFU-GM: 0%
  Cycling Status of Progenitors, CFU-GM, AGAR Culture: 3%
P5, T = 3 h after injection
  Cycling Status of Progenitors, BFU-E: 3%
  Cycling Status of Progenitors, CFU-GEMM: 0%
  Cycling Status of Progenitors, CFU-GM: 5%
  Cycling Status of Progenitors, CFU-GM, AGAR Culture: 0%
P5, T = 6 h after injection
  Cycling Status of Progenitors, BFU-E: 1%
  Cycling Status of Progenitors, CFU-GEMM: 0%
  Cycling Status of Progenitors, CFU-GM: 0%
  Cycling Status of Progenitors, CFU-GM, AGAR Culture: 1%
P5, T = 9 h after injection
  Cycling Status of Progenitors, BFU-E: 0%
  Cycling Status of Progenitors, CFU-GEMM: 0%
  Cycling Status of Progenitors, CFU-GM: 0%
  Cycling Status of Progenitors, CFU-GM, AGAR Culture: 0%
P5, T = 24 h after injection
  Cycling Status of Progenitors, BFU-E: 0%
  Cycling Status of Progenitors, CFU-GEMM: 0%
  Cycling Status of Progenitors, CFU-GM: 0%
  Cycling Status of Progenitors, CFU-GM, AGAR Culture: 0%
Human donors, prior to and 1, 3, 6, 9 and 24 hours after injection
  cycling state of progenitors: slow or non-cycling state
